Consider 12 compounds from patent publication US8519136B2, “Aminopyridine derivatives having aurora a selective inhibitory action” (MSD K.K., priority 2008, dated 2013).

Structures can show the parent of a compound that is named as a salt.

Experiment [1] addresses T1, GST-tagged human Aurora B(AurB)/His-tagged human INCENP complex proteins (Homo sapiens, UniProt Q96GD4).
T1 construct: GST; purchased Carna Biosciences, Inc
Put plainly: Aurora B inhibitory activity (Method A, IMAP kit). It counts as biochemical. The following applies: 40 μM ATP, 25° C., 45 minutes. Here is the method: An assay development kit for IMAP (registered trademark) (Aurora B), purchased from Carna Biosciences, Inc., was used for phosphorylation reaction, and the phosphorylation of a substrate was detected using the IMAP technology. The assay development kit used is comprised of an assay buffer, GST-tagged human Aurora B(AurB)/His-tagged human INCENP complex proteins (amino acid sequence: 803-916, AAU04398.1), and an ATP/substrate solution. Using the same, the phosphorylation reaction was conducted in accordance with a partially revised protocol attached to the kit, and then the phosphorylation of the substrate was detected using the IMAP technology.
For the phosphorylation reaction, 384 well plate was used, and the reaction volume was 10 μl/well. The composition of the reaction buffer (assay buffer) is comprised of 20 mM of HEPES buffer (pH 7.4), 0.01% Tween-20, and 2 mM of dithiothreitol (DTT). Thereto, AurB/INCENP complex protein, 100 nM of the substrate, and 40 μM of ATP, and 1 mM of magnesium salt were added, and then the reaction was conducted at 25° C. for 45 minutes. Thereafter, in order to terminate and detect the reaction, 30 μl of the IMAP (registered trademark) binding reagent (IMAP Progressive Binding Reagent, R7284) that had been diluted (1:400) in the 1×IMAP binding buffer A (IMAP Progressive Binding Buffer A, 5× stock, R7282) was added to each well. The solution stood still for 60 minutes in the dark, and then fluorescence polarization was measured using a high-end microplate reader (excitation wavelength: 485 nm; emission wavelength: 520 nm).
The compound to be tested was added to the reaction system such that a dilution series of the compound in DMSO was prepared, and then 0.5 μL of this solution was added for the testing to each well. Each control well was provided by adding 0.5 μL of DMSO to the well in place of the DMSO solution containing the compound to be tested.

Experiment [2] addresses T2, His-tagged human Aurora A (Homo sapiens, UniProt O14965).
T2 construct: His (N); made in house; host or cells: Escherichia coli BL21-CodonPlus(DE3)-RIL
T2 sequence (O14965 1-403): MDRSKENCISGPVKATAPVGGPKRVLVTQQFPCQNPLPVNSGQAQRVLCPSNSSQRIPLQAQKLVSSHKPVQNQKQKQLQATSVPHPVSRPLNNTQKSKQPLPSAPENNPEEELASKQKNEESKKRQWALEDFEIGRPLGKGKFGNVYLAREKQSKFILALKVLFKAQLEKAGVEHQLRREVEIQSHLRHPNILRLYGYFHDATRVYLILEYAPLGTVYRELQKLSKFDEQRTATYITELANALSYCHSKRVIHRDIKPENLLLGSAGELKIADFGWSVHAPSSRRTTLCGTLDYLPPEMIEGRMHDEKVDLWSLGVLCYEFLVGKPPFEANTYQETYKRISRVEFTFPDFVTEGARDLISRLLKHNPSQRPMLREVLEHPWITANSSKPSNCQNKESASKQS
Put plainly: Aurora A inhibitory activity (IMAP fluorescence polarization). Type of experiment: biochemical. Conditions: 20 μM ATP, 30° C., 120 minutes. An excerpt:
cDNA of N-terminal His-tagged human Aurora A was integrated into an expression vector, which was then highly expressed in Escherichia coli BL21-CodonPlus(DE3)-RIL cells. The Escherichia coli was harvested and lysed, and then the His-tagged human Aurora A protein was applied onto a nickel chelate column and eluted from the column with imidazole. The active fractions were desalted with a desalting column to give a purified enzyme.
For measurement of the activity of Aurora A, the substrate used was a synthetic peptide (5-FAM (5-carboxyfluorescein)-γ-aminobutyric acid-Ala-Leu-Arg-Arg-Ala-Ser-Leu-Gly-NH2) (SEQ.ID.NO.: 1), which was purchased from Toray Research Center, Inc.
For the phosphorylation reaction, the method by Upstate, Inc. [Kinase Profiler™ Assay Protocols] was referred to, and phosphorylation of the substrate was detected using IMAP® technology (Molecular Devices, Co. Ltd.) (Gaudet E W. et. al, J. Biomol. Screen, 8, 164-175 (2003)). Concretely, the phosphorylation reaction and the detection were carried out as follows:
The phosphorylation reaction was conducted using 384 well plate, and the reaction volume was 10 μl/well. The reaction buffer is comprised of 50 mM Tris-chloride buffer (pH 7.4), 15 mM magnesium acetate, and 0.2 mM ethylenediamine-N,N,N′,N′-tetraacetic acid (EDTA). Thereto, the purified Aurora A protein, 100 nM of the peptide substrate, and 20 μM of adenosine 5′-triphosphate (ATP) were added, and then the reaction was carried out at 30° C. for 120 minutes.
Thereafter, in order to terminate and detect the reaction, 30 μl of the IMAP (registered trademark) binding reagent (IMAP Progressive Binding Reagent, R7284) that had been diluted (1:400) in the 1×IMAP binding buffer A (IMAP Progressive Binding Buffer A, 5× stock, R7282) was added to each well. The solution stood still for 60 minutes in the dark, and then fluorescence polarization was measured using a high-end microplate reader (excitation wavelength: 485 nm; emission wavelength: 520 nm).
The compound to be tested was added to the reaction system such that a dilution series of the compound in dimethylsulfoxide (DMSO) was prepared, and then 0.5 μL of this solution was added for the testing to each well. Each control well was provided by adding 0.5 μL of DMSO to the well in place of the DMSO solution containing the compound to be tested.
On the technique in general: Polarisation of emitted light reports the rotation of a fluorescent probe.

Experiment [3] concerns Human cervical cancer cells (HeLa S3). Description: Effect by combined use of drugs in cells (with docetaxel), WST-8 method. Type of experiment: cell-based. The following applies: docetaxel 0.3 nM alone, HeLa S3, three days, DMSO = 0%. As for the experimental part:
Fetal calf serum (FCS) was purchased from Moregate Biotech, DMEM medium from Invitrogen Corp., docetaxel (tradename: Taxere) from Sigma-Aldrich, Inc., and WST-8 from Kishida Chemical Co., Ltd.
Human cervical cancer cells (HeLa S3) were obtained from the American Type Culture Collection (ATCC).
Cells were suspended in a DMEM medium containing 10% FCS, and the cell suspension was dispensed to two 96-well plastic plates at a rate of 750 cells/100 microliters per well. The plates were incubated overnight in 5% CO2-95% air at 37° C. A drug was subjected to graded dilution in dimethylsulfoxide and further diluted with DMSO or with a DMEM medium containing 10% FCS and also containing 0.6 nM docetaxel. Then, the dilutions were each dispensed to one of the plates on which cells had been disseminated, at a rate of 100 microliters per well. The final concentration of docetaxel at this stage was 0.3 nM. Also, the concentrations in the case of sole administration of the compound according to the invention were 0.003, 0.01, 0.03, 0.1, 0.3, 1, 3 and 10 μM. The plates were incubated for further three days in 5% CO2-95% air at 37° C. Cell growth after incubation was measured by the WST-8 method (H. Tominaga, et al., Anal. Commun., 36, 47-50 (1999)). Here, the WST-8 method refers to a method in which 20 microliters of a WST-8 reagent solution is added to each well, incubation is conducted at 37° C. for 60 minutes, the plate is stirred, and the amount of formazan produced is measured by a colorimetric method to determine the inhibitory rate of the drug. The growth inhibitory effects of docetaxel and of the compound according to the invention were determined, with the value obtained in sole treatment of DMSO being defined as 0%.

T1 sequence (Q96GD4 whole entry): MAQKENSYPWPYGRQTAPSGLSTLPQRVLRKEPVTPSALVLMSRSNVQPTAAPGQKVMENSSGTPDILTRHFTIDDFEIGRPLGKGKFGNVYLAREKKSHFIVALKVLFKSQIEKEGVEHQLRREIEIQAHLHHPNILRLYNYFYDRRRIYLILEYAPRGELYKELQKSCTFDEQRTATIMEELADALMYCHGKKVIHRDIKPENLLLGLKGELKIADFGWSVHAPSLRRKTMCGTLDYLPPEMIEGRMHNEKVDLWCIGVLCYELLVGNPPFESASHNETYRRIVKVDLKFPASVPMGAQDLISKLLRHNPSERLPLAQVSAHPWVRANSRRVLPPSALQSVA
T1 sequence (Q9NQS7 803-916 partner limits assumed): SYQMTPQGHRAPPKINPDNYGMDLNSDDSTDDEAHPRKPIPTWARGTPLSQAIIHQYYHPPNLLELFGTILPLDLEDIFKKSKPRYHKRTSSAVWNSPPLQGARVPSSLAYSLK

Regarding `Cc1cc(Nc2cc[nH]n2)nc(CC2CCN(C(=O)c3cccc(Cl)c3F)CC2)n1` [Example 3, 2-((1-(3-chloro-2-fluorobenzoyl)piperidin-4-yl)methyl)-6-methyl-N-1H-pyrazol-3-ylpyrimidin-4-amine trifluoroacetate], the half-inhibitory concentration (IC50) amounted to 400 nM in experiment [1] and 1.6 nM in experiment [2].

Consider `CCOC(=O)C1(Cc2cccc(Nc3cc[nH]n3)n2)CCN(C(=O)c2cccc(Cl)c2F)CC1` [Example 4, ethyl 1-(3-chloro-2-fluorobenzoyl)-4-((6-(1H-pyrazol-3-ylamino)pyridin-2-yl)methyl)piperidine-4-carboxylate], for which the values for the IC50 in experiment [1] and in experiment [2] were > 1000 nM and 1.14 nM, respectively.

In the case of `CCOC(=O)C1(Cc2cccc(Nc3cc[nH]n3)n2)CCN(C(=O)c2cccc(C(F)(F)F)c2F)CC1` [Example 5, ethyl 1-(2-fluoro-3-(trifluoromethyl)benzoyl)-4-((6-(1H-pyrazol-3-ylamino)pyridin-2-yl)methyl)piperidine-4-carboxylate], the results for the IC50 in experiment [1] and in experiment [2] were 555 nM and 0.63 nM, respectively.

For the compound `NC(=O)C1(Cc2cccc(Nc3cc[nH]n3)n2)CCN(C(=O)c2cccc(Cl)c2F)CC1` [Example 6, 1-(3-chloro-2-fluorobenzoyl)-4-((6-(1H-pyrazol-3-ylamino)pyridin-2-yl)methyl)piperidine-4-carboxamide], the values for the IC50 in experiment [1] and in experiment [2] were > 1000 nM and 1.57 nM, respectively.

For the compound `NC(=O)C1(Cc2cccc(Nc3cc[nH]n3)n2)CCN(C(=O)c2cccc(C(F)(F)F)c2F)CC1` [Example 7, 1-(2-fluoro-3-(trifluoromethyl)benzoyl)-4-((6-(1H-pyrazol-3-ylamino)pyridin-2-yl)methyl)piperidine-4-carboxamide], the results for the IC50 in experiment [1] and in experiment [2] were 135 nM and 0.61 nM, respectively.

Take `CONC(=O)C1(Cc2cccc(Nc3cc[nH]n3)n2)CCN(C(=O)c2cccc(C(F)(F)F)c2F)CC1` [Example 8, 1-(2-fluoro-3-(trifluoromethyl)benzoyl)-N-methoxy-4-((6-(1H-pyrazol-3-ylamino)pyridin-2-yl)methyl)piperidine-4-carboxamide]: the IC50 in experiment [1] worked out at 555 nM; in experiment [2], 0.79 nM.

Take `O=C(c1cccc(F)c1F)N1CCC(Cc2cccc(Nc3cc[nH]n3)n2)(c2n[nH]c(=O)o2)CC1` [Example 11, 5-(1-(2,3-difluorobenzoyl)-4-((6-(1H-pyrazol-3-ylamino)pyridin-2-yl)methyl)piperidin-4-yl)-1,3,4-oxadiazol-2(3H)-one trifluoroacetate]: the IC50 was 236 nM in experiment [1] and 0.26 nM in experiment [2].

In the case of `O=c1[nH]nc(C2(Cc3cccc(Nc4cc[nH]n4)n3)CCN(S(=O)(=O)c3cccc(Cl)c3Cl)CC2)o1` [Example 13, 5-(1((2,3-dichlorophenyl)sulfonyl)-4((6-(1H-pyrazol-3-ylamino)pyridin-2-yl)methyl)piperidin-4-yl)-1,3,4-oxadiazol-2(3H)-one trifluoroacetate], the values for the IC50 in experiment [1] and in experiment [2] were 609 nM and 2.55 nM, respectively.

On to `Cc1cc(Nc2cccc(CC3(c4n[nH]c(=O)o4)CCN(C(=O)c4cccc(Cl)c4F)CC3)n2)n[nH]1` [Example 15, 5-(1-(3-chloro-2-fluorobenzoyl)-4-((6-((5-methyl-1H-pyrazol-3-yl)amino)pyridin-2-yl)methyl)piperidin-4-yl)-1,3,4-oxadiazol-2(3H)-one], for which the concentration for half-maximal inhibition (IC50) was 77.5 nM in experiment [1] and 0.25 nM in experiment [2].

`Cc1cc(Nc2cccc(CC3(c4n[nH]c(=O)o4)CCN(C(=O)c4cccc(F)c4F)CC3)n2)n[nH]1` [Example 16, 5-(1-(2,3-difluorobenzoyl)-4-((6-((5-methyl-1H-pyrazol-3-yl)amino)pyridin-2-yl)methyl)piperidin-4-yl)-1,3,4-oxadiazol-2(3H)-one]: the IC50 in experiment [1] was determined as 157 nM; in experiment [2] it was 0.41 nM.

For `Cc1cc(Nc2cc[nH]n2)nc(CC2(C(N)=O)CCN(C(=O)c3cccc(Cl)c3F)CC2)n1` [Example 18, 1-(3-chloro-2-fluorobenzoyl)-4-((4-methyl-6-(1H-pyrazol-3-ylamino)pyrimidin-2-yl)methyl)piperidine-4-carboxamide trifluoroacetate], the IC50 in experiment [1] was > 1000 nM; in experiment [2], 1.23 nM.

For the compound `CC(=O)O[C@@]12CO[C@@H]1C[C@H](O)[C@@]1(C)C(=O)[C@H](O)C3=C(C)[C@@H](OC(=O)[C@H](O)[C@@H](NC(=O)OC(C)(C)C)c4ccccc4)C[C@@](O)([C@@H](OC(=O)c4ccccc4)[C@H]21)C3(C)C` [docetaxel, reference compound], in experiment [3] (Homo sapiens, HeLa S3, 72 h, read-out: Cell growth inhibitory effect by sole administration of docetaxel (0.3 nM) (%)), the inhibition at 0.0003 µM turned out to be 49.6%. Also, in experiment [3], the “Cell growth inhibitory effect by sole administration of docetaxel (0.3 nM) (%)” value was 51.6%.

The IC50 is the concentration at which inhibition is half-maximal. A high value points to weaker potency in that assay.
